In US6271342A, “Sugar-modified cytostatics” (Bayer Aktiengesellschaft, priority 1995, dated 2001):
Read-outs that look alike come from different tables or passages of the source.

Tests used:
[1] = system: B 16 F 10; experiment: Growth inhibition test (MTT) for cytotoxic properties; format: cell-based, mouse; settings: Table 1b
Outline: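 Cells in RPMI 1640 with 10% FCS pre-cultured 1 day at 37° C, then exposed to test substances in DMSO; growth checked after day 3 and day 6. Read-out by MTT, 5 h incubation, isopropanol solubilization, extinction at 540 nm.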

[2] = system: SW-480
Method: Cleavage Kinetics With Cells
(§2) 2.25 ml of PBS are incubated together with 225 μl of a cell suspension (30 mg/ml) and 25 μl of substrate stock solution (1 mg/ml in 3% dimethyl sulphoxide in PBS) at 37° C. After 1 hour and 24 hours, samples of in each case 1 ml are taken, mixed with 1 ml of ethanol and left to stand at 4° C. for 20 minutes. After centrifugation (5 minutes at 3500 rpm), 100 μl of supernatant are taken for the HPLC analysis.

[3] = Cleavage kinetics with human blood (HPLC); format: in vitro ADME; settings: 37° C.
Description: In Vitro Investigation of the Cleavability of the Glycoconjugates
Cleavage Kinetics With Human Blood

[4] = system: SW 480; experiment: Growth inhibition test (MTT) for cytotoxic properties; format: cell-based, human
Outline: (§1)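 SW 480 and HT 29 cells in RPMI 1640 with 10% FCS were seeded at 50,000 cells/ml, grown 1 day at 37 °C, then exposed to compound added in DMSO. MTT (5 mg/ml stock) was applied after day 3 and day 6 for 5 h, and formazan absorbance was read at 540 nm. IC50 values reported.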

[5] = system: bone marrow parent cells of the mouse; experiment: CSF-induced proliferation of bone marrow parent cells, in vitro; format: cell-based; settings: recombinant murine GM-CSF, 7 days
Method: Bone marrow cells are flushed out of the femur of mice. 10^5 cells are incubated in McCoy SA medium (0.3% agar) together with recombinant murine GM-CSF (Genzyme; parent cell colony formation) and the substances (10^-4 to 100 μg/ml) at 37° C. and 7% CO2. 7 days later, the colonies ([…]) and clusters (17-50 cells) are counted.

[6] = system: hepatoma
Method: Cleavage Kinetics With Cells
as §2

[7] = Acute toxicity, single administration; format: in vivo, nu/nu naked mice; settings: for individual dose of the substances which can be tolerated / acute toxicity detected: single administration; for Individual dose tolerated in mg/kg of mouse, i.p.: single administration i.p., solution in dimethyl sulphoxide; for Individual dose tolerated in mg/kg of mouse, i.v.: aqueous solution; for acute toxicity detected: dose of 400 mg/kg
Method: Determination of the Acute Toxicity of Glycoconjugates of Batracyline (Single Administration)
The acute toxicity of the batracyline derivatives was determined on nu/nu naked mice.
The substances administered i.v., as aqueous solutions, and the substances administered i.p., as solutions in dimethyl sulphoxide, were injected once in concentrations of up to 400 mg of substance per kg of mouse.
The individual dose tolerated was calculated from the decrease in the weight of the animals up to 21 days after administration and from the number of animals surviving.

[8] = system: hepatoma; experiment: Cleavage kinetics with cells (HPLC); settings: Table 2a; 37° C.; * = cleavage product is N-[D-alanyl]-batracyline
Method: Cleavage Kinetics With Cells
as §2

[9] = system: SW-480; experiment: Cleavage kinetics with cells (HPLC); settings: Table 2a; 37° C.; * = cleavage product is N-[D-alanyl]-batracyline
Method: Cleavage Kinetics With Cells
as §2

[10] = system: HT 29; experiment: Growth inhibition test (MTT) for cytotoxic properties; format: cell-based, human
Outline: as §1

[11] = system: B16F10 tumour; experiment: In vivo test, survival of mice with transplanted B16F10 tumour; parameters: species or system mouse; settings: treated daily
Method: Mice are inoculated with 5×10^6 B16F10 tumour cells on day 0. The animals in which tumour cells are transplanted develop solid peritoneal tumours and are then treated daily with test substances or with the vehicle control. In the control group, 50% of the animals usually die between day 14 and 20. The test substances are administered in buffer or an organic solvent system comprising 20% methanol and 20% dimethyl sulphoxide in 0.7% sodium chloride solution.
The therapeutic result arises from the prolonging of the survival time of the treated animals. […] A therapeutic index can be estimated from the tolerance and prolonging of the survival time.

[12] = Table 2a, * = cleavage product is N-[D-alanyl]-batracyline
[13] = Table 1a, glycoconjugates of batracyline

% cleavage in SW-480 1 hour [2] [%] | % cleavage in SW-480 24 hours [2] [%] | % cleavage in hepatoma 1 hour [6] [%] | % cleavage in hepatoma 24 hours [6] [%] | % cleavage in human blood 1 hour [3, 12] [%] | % cleavage in human blood 24 hours [3, 12] [%] | Molecule | % cleavage in hepatoma 1 hour [8] [%] | % cleavage in SW-480 1 hour [9] [%] | IC50 [4, 13] [µM] | IC50 [10, 13] [µM] | other results
0 | 0 | 0 | 0 |  |  | CO[C@H]1[C@H](O)[C@@H](Oc2ccc(NC(=S)NCCCC[C@H](NC(=S)Nc3ccc(O[C@H]4O[C@@H](C)[C@@H](O)[C@@H](OC)[C@@H]4O)cc3)C(=O)N[C@@H](C)C(=O)NC3C=CCC4CN(c5c(F)cc6c(=O)c(C(=O)O)cn(C7CC7)c6c5Cl)CC43)cc2)O[C@@H](C)[C@H]1O (stereo partly drawn) [Example 11.2, N-{N^α,N^ε -Bis-[O-(3-O-methyl-β-L-fucosyl)-4-hydroxy-phenylamino-thiocarbonyl]-lysyl-alanyl}-quinolone-a] |  |  |  |  | IC50 [1]: 9 µM; % cleavage in human blood 1 hour ([3]; Table 2b): 0%; % cleavage in human blood 24 hours ([3]; Table 2b): 0%; IC50 ([4]; Table 1b): 30 µM; IC50 [μg/ml] CSF-induced proliferation of bone marrow parent cells of the mouse [5]: 22.5 µg/mL
0 | 0 | 0 | 0 | 0 | 0 | N-{N^α -[O-(3-O-Carboxymethyl-β-L-fucosyl)-4-hydroxyphenylaminothiocarbonyl] -N^α -[acetyl]-lysyl-D-alanyl batracyline [Example 5.9] |  |  | 70 | 70 | 
 |  |  |  |  |  | CC(NC(=O)C(CCCCNC(=S)Nc1ccc(OC2OC(C)C(O)C(OCC(=O)[O-])C2O)cc1)NC(=S)Nc1ccc(OC2OC(C)C(O)C(OCC(=O)[O-])C2O)cc1)C(=O)Nc1ccc2nc3n(c(=O)c2c1)Cc1ccccc1-3.[Na+].[Na+] [Example 6.12, N-{N^α,N^ε -Bis-[O-(3-O-carboxymethyl-β-L-fucosyl)-4-hydroxy-phenylamino-thiocarbonyl]-lysyl-D-alanyl}-batracyline, di-sodium salt] | 0 | 0 | 35 | 50 | acute toxicity detected [7]: no acute toxicity; individual dose of the substances which can be tolerated [7]: more than 200 mg of substance per kg of mouse; Individual dose tolerated in mg/kg of mouse, i.v. ([7]; single administration i.v.): > 400 mg/kg of mouse; % cleavage in hepatoma 24 hours [8]: 0%; % cleavage in SW-480 24 hours [9]: 0%
0 | 0 | 0 | 0 | 0 | 0 | CC(NC(=O)C(CO)NC(=S)Nc1ccc(OC2OC(C)C(O)C(O)C2O)cc1)C(=O)Nc1ccc2c(c1)Cn1c-2nc2ccccc2c1=O [Example 7.3, N-{N-[O-(β-L-Fucosyl)-4-hydroxy-phenylamino-thiocarbonyl]-seryl-D-alanyl]-batracyline] |  |  | 50 |  | 
 |  |  |  |  |  | N-{N^ε -[O-(3-O-Methyl-β-L-fucosyl)-4-hydroxy-phenylamino-thiocarbonyl]-lysy l-D-alanyl}-batracyline, trifluoroacetate [Example 3.4] | 98 | 74 | 100 | 65 | Individual dose tolerated in mg/kg of mouse, i.p. [7]: 200 mg/kg of mouse; animals died ([7]; single administration i.v.): 2; Individual dose tolerated in mg/kg of mouse, i.v. ([7]; single administration i.v.): < 100 mg/kg of mouse
 |  |  |  |  |  | CO[C@H]1[C@H](O)[C@@H](Oc2ccc(NC(=S)NCCCC[C@@H](NC(=S)Nc3ccc(O[C@H]4O[C@@H](C)[C@@H](O)[C@@H](OC)[C@@H]4O)cc3)C(=O)NC3C=CCC4CN(c5c(F)cc6c(=O)c(C(=O)[O-])cn(C7CC7)c6c5Cl)CC43)cc2)O[C@@H](C)[C@H]1O.[Na+] (stereo partly drawn) [Example 11.12, N-{N^α,N^ε -Bis-[O-(3-O-methyl-β-L-fucosyl)-4-hydroxy-phenylamino-thiocarbonyl]-D-lysyl}-quinolone-a, sodium salt] |  |  |  |  | % survivors Day 0 ([11]; 1 mg/kg): 100%; % survivors Day 20 ([11]; 1 mg/kg): 90%; % survivors Day 25 ([11]; 1 mg/kg): 60%; % survivors Day 30 ([11]; 1 mg/kg): 30%; % survivors Day 35 ([11]; 1 mg/kg): 30%; % survivors Day 0 ([11]; 100 mg/kg): 100%; % survivors Day 20 ([11]; 100 mg/kg): 100%; % survivors Day 25 ([11]; 100 mg/kg): 100%; % survivors Day 30 ([11]; 100 mg/kg): 90%; % survivors Day 35 ([11]; 100 mg/kg): 90%
 |  |  |  |  |  | COC1C(O)C(C)OC(Oc2ccc(NC(=S)NC(CCCCN)C(=O)NC3C=CC(C)C4CN(c5cc6c(cc5F)c(=O)c(C(=O)O)c5scc(C)n56)CC34)cc2)C1O.Cl (mixture of isomers) [Example 14.4, N-{N^α -[O-(3-O-Methyl-β-L-fucopyranosyl)-4-hydroxy-phenylamino-thiocarbonyl]-D-lysyl}-quinolone-c, hydrochloride] |  |  |  |  | IC50 [1]: 0.4 µM; IC50 ([4]; Table 1b): 1.5 µM; IC50 ([10]; Table 1b): 1 µM; IC50 [μg/ml] CSF-induced proliferation of bone marrow parent cells of the mouse [5]: 3.6 µg/mL
0 | 0 | 0 | 0 | 0 | 0 | N-{N^α -[O-(4-O-Methyl-β-L-fucosyl)-4-hydroxy-phenylamino-thiocarbonyl]-lysy l-D-alanyl}-batracyline [Example 4.4] |  |  | 30 | 25 | 
0 | 8 | 0 | 12 |  |  | CO[C@H]1[C@H](O)[C@@H](Oc2ccc(NC(=S)NCCCC[C@H](NC(=S)Nc3ccc(O[C@H]4O[C@@H](C)[C@@H](O)[C@@H](OC)[C@@H]4O)cc3)C(=O)NC3C=CCC4CN(c5c(F)cc6c(=O)c(C(=O)O)cn(C7CC7)c6c5Cl)CC43)cc2)O[C@@H](C)[C@H]1O (stereo partly drawn) [Example 11.6, N-{N^α,N^ε -Bis-[O-(3-O-methyl-β-L-fucosyl)-4-hydroxy-phenylamino-thiocarbonyl]-lysyl}-quinolone-a] |  |  |  |  | IC50 [1]: 5 µM; % cleavage in human blood 1 hour ([3]; Table 2b): 0%; % cleavage in human blood 24 hours ([3]; Table 2b): 11%; IC50 ([4]; Table 1b): 8 µM; IC50 ([10]; Table 1b): 9 µM
 |  |  |  |  |  | N-{N^α,N^ε -Bis-[O-(3-O-methyl-β-L-fucosyl)-4-hydroxy-phenylamino-thiocarbonyl]- lysyl-D-alanyl}-batracyline [Example 6.2] | 0 | 0 | 40 | 50 | acute toxicity detected [7]: no acute toxicity; individual dose of the substances which can be tolerated [7]: more than 200 mg of substance per kg of mouse; Individual dose tolerated in mg/kg of mouse, i.p. [7]: > 400 mg/kg of mouse; % cleavage in hepatoma 24 hours [8]: 0%; % cleavage in SW-480 24 hours [9]: 0%

Molecule | % cleavage in SW-480 1 hour [2] [%] | % cleavage in SW-480 24 hours [2] [%] | % cleavage in hepatoma 1 hour [6] [%] | % cleavage in hepatoma 24 hours [6] [%] | % cleavage in human blood 1 hour [3, 12] [%] | % cleavage in human blood 24 hours [3, 12] [%] | % cleavage in hepatoma 1 hour [8] [%] | % cleavage in SW-480 1 hour [9] [%] | IC50 [4, 13] [µM] | IC50 [10, 13] [µM] | other results
N-{N^ε -[O-(3-O-Carboxymethyl-β-L-fucosyl)-4-hydroxy-phenylamino-thiocarbony l]-lysyl-D-alanyl}-batracyline, sodium salt [Example 3.9] |  |  |  |  | 0 | 54 | 32 | 28 | 40 | 55 | individual dose of the substances which can be tolerated [7]: more than 200 mg of substance per kg of mouse; Individual dose tolerated in mg/kg of mouse, i.p. [7]: 200 mg/kg of mouse; Individual dose tolerated in mg/kg of mouse, i.v. ([7]; single administration i.v.): 200 mg/kg of mouse; % cleavage in hepatoma 24 hours [8]: 100%; % cleavage in SW-480 24 hours [9]: 100%
